Laboratory results from US5017604A, “Novel fenamic acid methyl hydroxamate derivatives having cyclooxygenase and 5-lipoxygenase inhibition” (Warner-Lambert Company, priority 1990, dated 1991).
Blank lines part the entries; values can stand above or below the compound they belong to.

How the values were obtained:
Assay type in all cases: cell-based
5-lipoxygenase [1] = target: T1, 5-lipoxygenase (Rattus norvegicus, UniProt P12527); experiment: ARBL whole cell 5-lipoxygenase assay (RBL-1 cells, LTB4 formation by RIA); details: RBL-1 whole cells; for inhibition at 16 µM / inhibition at 10 µM: read-out: ARBL % inhibition at the given micromolar concentration (LTB4 formation); for IC50: A23187 5 μM, read-out: ARBL IC50 (50% inhibition of LTB4 formation)
T1 construct: host or cells: RBL-1 (rat basophilic leukemia) cells
T1 sequence (P12527 1-673): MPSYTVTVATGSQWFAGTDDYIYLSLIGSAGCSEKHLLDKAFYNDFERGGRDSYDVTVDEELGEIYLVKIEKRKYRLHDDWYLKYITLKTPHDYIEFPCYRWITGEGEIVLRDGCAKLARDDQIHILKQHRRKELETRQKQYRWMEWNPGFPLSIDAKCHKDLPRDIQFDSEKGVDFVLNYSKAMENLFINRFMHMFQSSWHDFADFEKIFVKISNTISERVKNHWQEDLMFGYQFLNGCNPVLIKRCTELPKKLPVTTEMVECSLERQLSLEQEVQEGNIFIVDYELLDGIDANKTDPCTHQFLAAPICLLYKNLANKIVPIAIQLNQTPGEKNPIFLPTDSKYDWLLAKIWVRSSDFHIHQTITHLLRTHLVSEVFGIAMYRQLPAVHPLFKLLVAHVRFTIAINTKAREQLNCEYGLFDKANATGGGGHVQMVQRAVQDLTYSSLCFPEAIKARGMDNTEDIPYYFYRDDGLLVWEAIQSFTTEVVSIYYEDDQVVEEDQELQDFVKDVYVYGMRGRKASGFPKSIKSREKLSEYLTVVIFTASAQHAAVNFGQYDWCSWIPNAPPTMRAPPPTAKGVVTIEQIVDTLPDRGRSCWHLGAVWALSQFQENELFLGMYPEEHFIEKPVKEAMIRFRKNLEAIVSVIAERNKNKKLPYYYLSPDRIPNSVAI
Experimental: (§1) ARBL/ARBC Whole Cell 5-Lipoxygenase and Cyclooxyqenase Assays
(§2) The rat basophilic leukemia cell line (RBL-1) was obtained from the American Type Culture Collection (Rockville, Md.).
(§3) Radioimmunoassay (RIA) kits for LTB4 and PGF2α determination were obtained from Amersham (Arlington Heights, Ill.) and Seragen (Boston, Mass.), respectively.
(§4) RBL-1 cells are grown in suspension culture in Eagle's minimum essential medium supplemented with 12% fetal bovine serum at 37° C. in an incubator supplied with air-5% carbon dioxide. Cells are harvested by centrifugation. They are washed with cold phosphate buffered saline pH 7.4 (PBS; NaCl, 7.1 g; Na2 HPO4, 1.15 g; KH2 PO4, 0.2 g; and KCl, 0.2 g/L). Cells are finally suspended in PBS containing 1.0 mM calcium at a density of 2×10^6 cells/mL. Cells are incubated with and without test agent (in DMSO) (1% DMSO is without effect on arachidonic acid metabolism) for 10 minutes at room temperature. Calcium inonophore A23187 (5 μM) is added and cells are incubated for 7 minutes at 37° C. The reaction is stopped by chilling the tubes on ice for 10 minutes. Cells are separated by centrifugation and the supernatant is stored at -20° . Aliquots (100 μL) are analyzed for LTB4 and PGF2α using radioimmunoassay kits as provided by the supplier.
(§5) Table 1 contains biochemical data obtained from this whole cell assay as IC50 s which are calculated as the concentration of test compound causing 50% inhibition of LTB4 or PGF2α formation or in percent inhibition at the given micromolar concentration. N at 10 or 16 is not active at 10 μmolar or 16 μmolar.

cyclooxygenase [2] = target: T2, cyclooxygenase (Rattus norvegicus, UniProt Q63921); experiment: ARBC whole cell cyclooxygenase assay (RBL-1 cells, PGF2α formation by RIA); details: RBL-1 whole cells; for IC50: A23187 5 μM, read-out: ARBC IC50 (50% inhibition of PGF2α formation)
T2 construct: host or cells: RBL-1 (rat basophilic leukemia) cells
T2 sequence (Q63921 27-602): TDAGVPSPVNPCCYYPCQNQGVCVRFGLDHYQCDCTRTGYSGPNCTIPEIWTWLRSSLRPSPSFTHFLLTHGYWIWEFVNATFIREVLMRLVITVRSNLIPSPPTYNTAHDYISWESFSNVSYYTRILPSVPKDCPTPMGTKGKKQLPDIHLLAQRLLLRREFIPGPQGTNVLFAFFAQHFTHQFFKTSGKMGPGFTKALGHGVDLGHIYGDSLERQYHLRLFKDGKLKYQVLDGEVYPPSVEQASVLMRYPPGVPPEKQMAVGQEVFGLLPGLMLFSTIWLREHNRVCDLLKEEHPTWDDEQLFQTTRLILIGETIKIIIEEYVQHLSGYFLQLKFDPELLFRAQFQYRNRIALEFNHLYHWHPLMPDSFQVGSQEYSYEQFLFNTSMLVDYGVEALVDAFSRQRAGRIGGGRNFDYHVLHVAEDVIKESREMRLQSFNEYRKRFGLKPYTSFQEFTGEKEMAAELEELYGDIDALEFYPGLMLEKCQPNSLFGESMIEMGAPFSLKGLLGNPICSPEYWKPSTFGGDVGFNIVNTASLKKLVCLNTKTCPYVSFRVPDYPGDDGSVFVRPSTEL
Experimental: as §1, §2, §3, §4, §5

5-lipoxygenase [3] = target: T1, 5-lipoxygenase; experiment: ARBL whole cell 5-lipoxygenase assay (RBL-1 cells, LTB4 formation by RIA); set-up: key: N @ 10 μmolar is not active at 10 μmolar; details: RBL-1 whole cells; @ 10 μM
Experimental: as §1, §2, §3, §4, §5

cyclooxygenase [4] = target: T2, cyclooxygenase; experiment: ARBC whole cell cyclooxygenase assay (RBL-1 cells, PGF2α formation by RIA); set-up: key: N @ 16 μmolar is not active at 16 μmolar; details: RBL-1 whole cells; @ 16 μM
Experimental: as §1, §2, §3, §4, §5

5-lipoxygenase [5] = target: T1, 5-lipoxygenase; experiment: ARBL whole cell 5-lipoxygenase assay (RBL-1 cells, LTB4 formation by RIA); set-up: key: N @ 16 μmolar is not active at 16 μmolar; details: RBL-1 whole cells; @ 16 μM
Experimental: as §1, §2, §3, §4, §5

cyclooxygenase [6] = target: T2, cyclooxygenase; experiment: ARBC whole cell cyclooxygenase assay (RBL-1 cells, PGF2α formation by RIA); set-up: key: N @ 10 μmolar is not active at 10 μmolar; details: RBL-1 whole cells; @ 10 μM
Experimental: as §1, §2, §3
as §4, with “supplier. […]” for “supplier.”

[7] = read-out: ARBC % inhibition at the given micromolar concentration (PGF2α formation)

- inhibition at 16 µM (5-lipoxygenase [1]): 47%
- inhibition at 16 µM (cyclooxygenase [2]; [7]): 89%
SMILES: CCOC(=O)N(O)Cc1ccc(Cl)c(Nc2ccccc2C(=O)O)c1Cl [Example 56]

- inhibition at 10 µM (cyclooxygenase [2]; [7]): 83%
- ARBL activity (N = not active) (5-lipoxygenase [3]): N
SMILES: CC(=O)N(O)Cc1ccc(Cl)c(Nc2ccccc2C(=O)O)c1Cl [Example 55]

- inhibition at 10 µM (cyclooxygenase [2]; [7]): 87%
- ARBL activity (N = not active) (5-lipoxygenase [3]): N
SMILES: CC(=O)N(O)Cc1cccc(Nc2ccccc2C(=O)O)c1Cl [Example 54]

- inhibition at 0.25 µM (cyclooxygenase [2]; @ 0.25 μM, read-out: ARBC % inhibition at the given micromolar concentration (PGF2α formation)): 67%
- ARBL activity (N = not active) (5-lipoxygenase [5]): N
SMILES: CCOC(=O)N(O)Cc1cccc(Nc2ccccc2C(=O)O)c1C [Example 49]

- inhibition at 10 µM (cyclooxygenase [2]; [7]): 79%
- ARBL activity (N = not active) (5-lipoxygenase [3]): N
SMILES: CC(=O)N(O)C(C)c1cccc(Nc2ccccc2C(=O)O)c1Cl (stereo not drawn) [Example 47]

- inhibition at 10 µM (cyclooxygenase [2]; [7]): 53%
- ARBL activity (N = not active) (5-lipoxygenase [3]): N
SMILES: CC(=O)N(O)C(C)c1ccc(Cl)c(Nc2ccccc2C(=O)O)c1Cl (stereo not drawn) [Example 57]

- inhibition at 10 µM (cyclooxygenase [2]; [7]): 70%
- ARBL activity (N = not active) (5-lipoxygenase [5]): N
SMILES: CC(=O)N(O)C(C)c1cccc(Nc2ccccc2C(=O)O)c1C (stereo not drawn) [Example 51]

- inhibition at 16 µM (cyclooxygenase [2]; [7]): 56%
- ARBL activity (N = not active) (5-lipoxygenase [5]): N
SMILES: CNC(=O)N(O)Cc1cccc(Nc2ccccc2C(=O)O)c1C [Example 50]

- inhibition at 16 µM (cyclooxygenase [2]; [7]): 53%
- ARBL activity (N = not active) (5-lipoxygenase [5]): N
SMILES: CCOC(=O)N(O)C(C)c1ccc(C)c(Nc2ccccc2C(=O)O)c1C (stereo not drawn) [Example 53]

- IC50 (cyclooxygenase [2]): 1900 nM
- ARBL activity (N = not active) (5-lipoxygenase [3]): N
SMILES: CC(=O)N(O)Cc1cccc(Nc2ccccc2C(=O)O)c1C [Example 48]

- ARBL activity (N = not active) (5-lipoxygenase [5]): N
- ARBC activity (N = not active) (cyclooxygenase [4]): N
SMILES: CC(=O)N(O)C(C)c1ccc(C)c(Nc2ccccc2C(=O)O)c1C (stereo not drawn) [Example 52]

- IC50 (5-lipoxygenase [1]): 360 nM
- IC50 (cyclooxygenase [2]): 4700 nM
SMILES: CNC(=O)N(O)Cc1cccc(Nc2ccccc2C(=O)OC)c1Cl [Example 46, 2-[[2-Chloro-3-[[hydroxy[(methylamino)carbonyl]amino]methyl]phenyl]amino]benzoic acid methyl ester]

More lines, now with the values behind:

SMILES: CCOC(=O)N(O)C(C)c1ccc(C)c(Nc2ccccc2C(=O)OC)c1C (stereo not drawn) [Example 43]
- inhibition at 16 µM (5-lipoxygenase [1]): 100%
- ARBC activity (N = not active) (cyclooxygenase [4]): N

SMILES: CCOC(=O)N(O)Cc1cccc(Nc2ccccc2C(=O)OC)c1Cl [Example 40, 2-[[2-chloro-3-[[(ethoxycarbonyl)hydroxyamino]methyl]phenyl]amino]benzoic acid, methyl ester]
- IC50 (5-lipoxygenase [1]): 210 nM
- IC50 (cyclooxygenase [2]): 670 nM

SMILES: COC(=O)c1ccccc1Nc1cccc(CN(O)C(C)=O)c1Cl [Example 37]
- IC50 (5-lipoxygenase [1]): 580 nM
- IC50 (cyclooxygenase [2]): 4300 nM

SMILES: COC(=O)c1ccccc1Nc1c(C)ccc(C(C)N(O)C(C)=O)c1C (stereo not drawn) [Example 36]
- inhibition at 16 µM (5-lipoxygenase [1]): 100%
- ARBC activity (N = not active) (cyclooxygenase [4]): N

SMILES: CCOC(=O)N(O)Cc1cccc(Nc2ccccc2C(=O)OC)c1C [Example 41, 2-[[3-[[(Ethoxycarbonyl)hydroxyamino]methyl]-2-methylphenyl]amino]benzoic acid methyl ester]
- IC50 (5-lipoxygenase [1]): 390 nM
- IC50 (cyclooxygenase [2]): 8700 nM

SMILES: COC(=O)c1ccccc1Nc1cccc(CN(O)C(C)=O)c1C [Example 34]
- IC50 (5-lipoxygenase [1]): < 62.5 nM
- IC50 (cyclooxygenase [2]): 10000 nM

SMILES: COC(=O)c1ccccc1Nc1c(Cl)ccc(CN(O)C(C)=O)c1Cl [Example 38]
- IC50 (5-lipoxygenase [1]): 360 nM
- IC50 (cyclooxygenase [2]): 6000 nM

SMILES: COC(=O)c1ccccc1Nc1cccc(C(C)N(O)C(C)=O)c1C (stereo not drawn) [Example 35]
- inhibition at 10 µM (5-lipoxygenase [1]): 100%
- ARBC activity (N = not active) (cyclooxygenase [6]): N

SMILES: CCOC(=O)N(O)Cc1ccc(Cl)c(Nc2ccccc2C(=O)OC)c1Cl [Example 42]
- IC50 (5-lipoxygenase [1]): 330 nM
- IC50 (cyclooxygenase [2]): 3700 nM

SMILES: COC(=O)c1ccccc1Nc1c(Cl)ccc(C(C)N(O)C(C)=O)c1Cl (stereo not drawn) [Example 39]
- inhibition at 10 µM (5-lipoxygenase [1]): 100%
- inhibition at 10 µM (cyclooxygenase [2]; [7]): 52%

SMILES: CNC(=O)N(O)Cc1cccc(Nc2ccccc2C(=O)OC)c1C [Example 44, 2-[[3-[[Hydroxy[(methylamino)carbonyl]amino]methyl]-2-methylphenyl]amino]benzoic acid methyl ester]
- inhibition at 16 µM (5-lipoxygenase [1]): > 95%
- inhibition at 16 µM (cyclooxygenase [2]; [7]): 43%

SMILES: COC(=O)c1ccccc1Nc1cccc(C(C)N(O)C(C)=O)c1Cl (stereo not drawn) [Example 33, 2-[[3-[1-(acetylhydroxyamino)ethyl]-2-chlorophenyl]amino]benzoic acid methyl ester]
- inhibition at 10 µM (5-lipoxygenase [1]): 100%
- ARBC activity (N = not active) (cyclooxygenase [6]): N
